Test system: 521955-158-R2-J5-PDC complex spheroid viability
Experiment: Anticancer human tumor 521955-158-R2-J5-PDC patient-derived pancreatic carcinoma cell line growth inhibition
Conditions: for IC50: curve of first compound; for viability, T/C: stronger effect = lower value
Summary of the method: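 Complex spheroids of tumor cells with HUVEC and human MSCs, exposed to iadademstat combined with other agents. Each agent tested in half-log steps from near clinical Cmax (else 10 microM top), DMSO ≤0.25%.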

[1] = second compound 0.1 µM, first compound 0.0316 µM
[2] = second compound 0.1 µM, first compound 0.1 µM
[3] = second compound 0.1 µM, first compound 0.316 µM
[4] = second compound 0.1 µM, first compound 1 µM
[5] = second compound 0.316 µM, first compound 0.0316 µM
[6] = second compound 0.316 µM, first compound 0.1 µM
[7] = second compound 0.316 µM, first compound 0.316 µM
[8] = second compound 0.316 µM, first compound 1 µM
[9] = second compound 1 µM, first compound 0.0316 µM
[10] = second compound 1 µM, first compound 0.1 µM
[11] = second compound 1 µM, first compound 0.316 µM
[12] = second compound 1 µM, first compound 1 µM
[13] = second compound 3.16 µM, first compound 0.0316 µM
[14] = second compound 3.16 µM, first compound 0.1 µM
[15] = second compound 3.16 µM, first compound 0.316 µM
[16] = second compound 3.16 µM, first compound 1 µM
[17] = second compound 10 µM, first compound 0.0316 µM
[18] = second compound 10 µM, first compound 0.1 µM
[19] = second compound 10 µM, first compound 0.316 µM
[20] = second compound 10 µM, first compound 1 µM
[21] = second compound 0.1 µM, first compound 0.00949 µM
[22] = second compound 0.1 µM, first compound 0.03 µM
[23] = second compound 0.1 µM, first compound 0.0949 µM
[24] = second compound 0.1 µM, first compound 0.3 µM
[25] = second compound 0.316 µM, first compound 0.00949 µM
[26] = second compound 0.316 µM, first compound 0.03 µM
[27] = second compound 0.316 µM, first compound 0.0949 µM
[28] = second compound 0.316 µM, first compound 0.3 µM
[29] = second compound 1 µM, first compound 0.00949 µM
[30] = second compound 1 µM, first compound 0.03 µM
[31] = second compound 1 µM, first compound 0.0949 µM
[32] = second compound 1 µM, first compound 0.3 µM
[33] = second compound 3.16 µM, first compound 0.00949 µM
[34] = second compound 3.16 µM, first compound 0.03 µM
[35] = second compound 3.16 µM, first compound 0.0949 µM
[36] = second compound 3.16 µM, first compound 0.3 µM
[37] = second compound 10 µM, first compound 0.00949 µM
[38] = second compound 10 µM, first compound 0.03 µM
[39] = second compound 10 µM, first compound 0.0949 µM
[40] = second compound 10 µM, first compound 0.3 µM
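Further: spheroids exposed to agents for seven days.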
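Wherever viability, T/C is given: percent of DMSO vehicle control luminescence viability.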

CC1COCCN1c1cc(C2(S(C)(=N)=O)CC2)nc(-c2ccnc3[nH]ccc23)n1 (stereo not given) + NC1CCC(NC2CC2c2ccccc2)CC1
IC50 (second compound 0.1 µM): 0.528 µM
IC50 (second compound 0.316 µM): 0.505 µM
IC50 (second compound 1 µM): 0.531 µM
IC50 (second compound 3.16 µM): 0.5 µM
IC50 (second compound 10 µM): 0.446 µM
viability, T/C [1]: 104%
viability, T/C [2]: 87.7%
viability, T/C [3]: 76.6%
viability, T/C [4]: 16.5%
viability, T/C (second compound 0.1 µM, first compound 3.16 µM): 12.6%
viability, T/C (second compound 0.1 µM, first compound 10 µM): 16.9%
viability, T/C [5]: 88.7%
viability, T/C [6]: 82.8%
viability, T/C [7]: 71%
viability, T/C [8]: 19.3%
viability, T/C (second compound 0.316 µM, first compound 3.16 µM): 13.2%
viability, T/C (second compound 0.316 µM, first compound 10 µM): 16.1%
viability, T/C [9]: 79.7%
viability, T/C [10]: 90.3%
viability, T/C [11]: 74.7%
viability, T/C [12]: 19.8%
viability, T/C (second compound 1 µM, first compound 3.16 µM): 12.3%
viability, T/C (second compound 1 µM, first compound 10 µM): 15.3%
viability, T/C [13]: 97.6%
viability, T/C [14]: 93.9%
viability, T/C [15]: 71.5%
viability, T/C [16]: 17.6%
viability, T/C (second compound 3.16 µM, first compound 3.16 µM): 11.3%
viability, T/C (second compound 3.16 µM, first compound 10 µM): 14.8%
viability, T/C [17]: 85%
viability, T/C [18]: 81.6%
viability, T/C [19]: 64.4%
viability, T/C [20]: 16.2%
viability, T/C (second compound 10 µM, first compound 3.16 µM): 12.3%
viability, T/C (second compound 10 µM, first compound 10 µM): 16.7%

CCN(c1cc(-c2ccc(CN3CCOCC3)cc2)cc(C(=O)NCc2c(C)cc(C)[nH]c2=O)c1C)C1CCOCC1 + NC1CCC(NC2CC2c2ccccc2)CC1
IC50 (second compound 0.1 µM): > 3 µM
IC50 (second compound 0.316 µM): 2.56 µM
IC50 (second compound 1 µM): 1.88 µM
IC50 (second compound 3.16 µM): 1.73 µM
IC50 (second compound 10 µM): 1.49 µM
viability, T/C [21]: 105%
viability, T/C [22]: 105%
viability, T/C [23]: 94.4%
viability, T/C [24]: 83.3%
viability, T/C (second compound 0.1 µM, first compound 0.949 µM): 64.6%
viability, T/C (second compound 0.1 µM, first compound 3 µM): 51%
viability, T/C [25]: 103%
viability, T/C [26]: 99.1%
viability, T/C [27]: 95.8%
viability, T/C [28]: 78.2%
viability, T/C (second compound 0.316 µM, first compound 0.949 µM): 71%
viability, T/C (second compound 0.316 µM, first compound 3 µM): 46.3%
viability, T/C [29]: 103%
viability, T/C [30]: 99.8%
viability, T/C [31]: 93.7%
viability, T/C [32]: 79%
viability, T/C (second compound 1 µM, first compound 0.949 µM): 66%
viability, T/C (second compound 1 µM, first compound 3 µM): 39.5%
viability, T/C [33]: 96.8%
viability, T/C [34]: 103%
viability, T/C [35]: 96.3%
viability, T/C [36]: 82.8%
viability, T/C (second compound 3.16 µM, first compound 0.949 µM): 66.6%
viability, T/C (second compound 3.16 µM, first compound 3 µM): 35.7%
viability, T/C [37]: 103%
viability, T/C [38]: 101%
viability, T/C [39]: 94.6%
viability, T/C [40]: 83.8%
viability, T/C (second compound 10 µM, first compound 0.949 µM): 59.6%
viability, T/C (second compound 10 µM, first compound 3 µM): 34.8%

Nc1ncn(C2CC(O)C(CO)S2)c(=O)n1 (stereo not given) + NC1CCC(NC2CC2c2ccccc2)CC1
IC50 (second compound 0.1 µM): > 0.3 µM
IC50 (second compound 0.316 µM): > 0.3 µM
IC50 (second compound 1 µM): > 0.3 µM
IC50 (second compound 3.16 µM): > 0.3 µM
IC50 (second compound 10 µM): > 0.3 µM
viability, T/C (second compound 0.1 µM, first compound 0.000949 µM): 92.9%
viability, T/C (second compound 0.1 µM, first compound 0.003 µM): 91%
viability, T/C [21]: 88.3%
viability, T/C [22]: 79.8%
viability, T/C [23]: 75.6%
viability, T/C [24]: 57.3%
viability, T/C (second compound 0.316 µM, first compound 0.000949 µM): 95.9%
viability, T/C (second compound 0.316 µM, first compound 0.003 µM): 92.2%
viability, T/C [25]: 88.9%
viability, T/C [26]: 84.6%
viability, T/C [27]: 70.3%
viability, T/C [28]: 51.5%
viability, T/C (second compound 1 µM, first compound 0.000949 µM): 92.5%
viability, T/C (second compound 1 µM, first compound 0.003 µM): 87%
viability, T/C [29]: 93.7%
viability, T/C [30]: 82.8%
viability, T/C [31]: 77.8%
viability, T/C [32]: 56.5%
viability, T/C (second compound 3.16 µM, first compound 0.000949 µM): 103%
viability, T/C (second compound 3.16 µM, first compound 0.003 µM): 110%
viability, T/C [33]: 91.7%
viability, T/C [34]: 88.1%
viability, T/C [35]: 76.6%
viability, T/C [36]: 52.7%
viability, T/C (second compound 10 µM, first compound 0.000949 µM): 93.6%
viability, T/C (second compound 10 µM, first compound 0.003 µM): 94.9%
viability, T/C [37]: 98%
viability, T/C [38]: 82.8%
viability, T/C [39]: 77.4%
viability, T/C [40]: 54.9%

O=C(C=Cn1cnc(-c2cc(C(F)(F)F)cc(C(F)(F)F)c2)n1)NNc1cnccn1 + NC1CCC(NC2CC2c2ccccc2)CC1
IC50 (second compound 0.1 µM): < 0.00316 µM
IC50 (second compound 0.316 µM): < 0.00316 µM
IC50 (second compound 1 µM): < 0.00316 µM
IC50 (second compound 3.16 µM): < 0.00316 µM
IC50 (second compound 10 µM): < 0.00316 µM
viability, T/C (second compound 0.1 µM, first compound 0.00316 µM): 40.4%
viability, T/C (second compound 0.1 µM, first compound 0.01 µM): 42%
viability, T/C [1]: 45.4%
viability, T/C [2]: 35.8%
viability, T/C [3]: 19%
viability, T/C [4]: 14.7%
viability, T/C (second compound 0.316 µM, first compound 0.00316 µM): 40.8%
viability, T/C (second compound 0.316 µM, first compound 0.01 µM): 33.4%
viability, T/C [5]: 52.3%
viability, T/C [6]: 40.6%
viability, T/C [7]: 21.5%
viability, T/C [8]: 16.1%
viability, T/C (second compound 1 µM, first compound 0.00316 µM): 37.7%
viability, T/C (second compound 1 µM, first compound 0.01 µM): 31.5%
viability, T/C [9]: 52.4%
viability, T/C [10]: 38.4%
viability, T/C [11]: 26.8%
viability, T/C [12]: 17.2%
viability, T/C (second compound 3.16 µM, first compound 0.00316 µM): 40.2%
viability, T/C (second compound 3.16 µM, first compound 0.01 µM): 41.1%
viability, T/C [13]: 36.1%
viability, T/C [14]: 41.5%
viability, T/C [15]: 21.6%
viability, T/C [16]: 17.1%
viability, T/C (second compound 10 µM, first compound 0.00316 µM): 32.2%
viability, T/C (second compound 10 µM, first compound 0.01 µM): 29.3%
viability, T/C [17]: 35.3%
viability, T/C [18]: 29%
viability, T/C [19]: 24.1%
viability, T/C [20]: 13.3%

From PubChem BioAssay AID1918937 (Molecular Pharmacology Branch, DTP, NCI, 2023)
